Assay results published in patent US20250099420A1, “SMALL MOLECULE MODULATORS OF GPR139 COMPLEX” (University of Florida Research Foundation, Incorporated, priority 2022, published 2025).
Read-outs that look alike come from different tables or passages of the source.

How the values were obtained:
GPR139 = biological target: T1, GPR139 (Homo sapiens, UniProt Q6DWJ6); assay: GPR139 Agonist titration / agonist counterscreen assay (calcium detection, HEK-GPR139 cells); assay type: cell-based; set-up: expressed in transfected cells; host or cells: HEK Aequorin cells, Maxcyte transient transfection; conditions: GPR139 Agonist Activity; for Averaged Max % Response (±St. Dev.): activity relative to known control; for EC50: read-out: EC50
T1 sequence (Q6DWJ6 1-353): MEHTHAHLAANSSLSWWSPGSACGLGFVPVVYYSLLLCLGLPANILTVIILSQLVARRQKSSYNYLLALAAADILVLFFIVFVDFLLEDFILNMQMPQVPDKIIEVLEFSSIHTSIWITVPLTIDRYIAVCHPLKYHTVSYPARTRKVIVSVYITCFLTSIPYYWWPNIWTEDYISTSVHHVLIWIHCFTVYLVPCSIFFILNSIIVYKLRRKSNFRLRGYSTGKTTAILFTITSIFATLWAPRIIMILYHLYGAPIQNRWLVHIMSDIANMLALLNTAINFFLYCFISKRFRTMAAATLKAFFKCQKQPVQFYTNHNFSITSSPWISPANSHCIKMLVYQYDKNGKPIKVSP
Method: GPR activity was assessed using a calcium detection assay. […] Negative control samples were treated with DMSO. […] Intracellular calcium was measured using Calcium 5.

parental HEK cells = assay: HEK parental Agonist Counterscreen Assay (non-transfected cells); assay type: cell-based; conditions: for Averaged Max % Response (±St. Dev.): activity relative to known control
Description: The high control for the agonist counterscreen was Forskolin not acetylcholine.

[1] = values printed in E-notation without unit
[2] = HEK Agonist Activity section of Table 4 (parental HEK counterscreen)
[3] = Homo sapiens, HEK293, HEK Agonist Activity section of Table 4 (parental HEK counterscreen)

Compound | Averaged Max % Response (±St. Dev.) (GPR139) | Lipophilic Efficiency (logD) (GPR139; based on logD) | Lipophilic Efficiency (logP) (GPR139; based on logP) | Hill Slope (GPR139; fitted dose-response curve) | Efficiency Ligand (GPR139; ligand efficiency) | EC50 (GPR139; [1]) | Lipophilic Efficiency (logD) (parental HEK cells; HEK Agonist Activity section) | Lipophilic Efficiency (logP) (parental HEK cells; HEK Agonist Activity section) | Efficiency Ligand (GPR139) | Hill Slope (GPR139) | Lipophilic Efficiency (logD) (GPR139) | Lipophilic Efficiency (logP) (GPR139) | EC50 (GPR139; HEK-GPR139 cells) | Lipophilic Efficiency (logD) (parental HEK cells; HEK Agonist Activity) | Lipophilic Efficiency (logP) (parental HEK cells; HEK Agonist Activity) | EC50 (parental HEK cells; [2]) | Averaged Max % Response (±St. Dev.) (parental HEK cells; HEK Agonist Activity section) | EC50 (parental HEK cells; [3]) | Averaged Max % Response (±St. Dev.) (parental HEK cells; HEK Agonist Activity) | EC50 (parental HEK cells; Homo sapiens, HEK293, HEK Agonist Activity, parental non-transfected HEK cells)
CN(C)C(CNC(=O)Nc1ccc(Cl)c(Cl)c1)c1cccnc1 (stereo not drawn) [SR-01000127953] | 96.92 ± 13.57% | 4.13 | 3.73 | 0.56 | 0.40 | 0.236 µM | 2.35 | 1.96 | – | – | – | – | – | – | – | – | 10.89 ± 5.56% | > 14.1 µM | – | –
Cc1ccccc1-c1nc(C[S+]([O-])CC(=O)NC(C)CCc2ccccc2)c(C)o1 (stereo not drawn) [SR-01000129545] | 92.13 ± 1.72% | – | – | – | – | – | 1.11 | 1.09 | 0.30 | 0.47 | 2.69 | 2.68 | 0.365 µM | – | – | > 14.1 µM | 32.45 ± 12.40% | – | – | –
CC(NC(=O)c1ccc2c(c1)N(Cc1ccccc1)C(=O)C[S+]2[O-])c1ccccc1 (stereo not drawn) [SR-01000129845] | 98.04 ± 26.06% | 3.96 | 3.96 | 1.01 | 0.32 | 0.138 µM | 1.95 | 1.95 | – | – | – | – | – | – | – | > 14.1 µM | 8.19 ± 5.50% | – | – | –
CC(CCc1ccccc1)NC(=O)c1ccc2c(c1)C(Cc1ccccc1)C(=O)C[S+]2[O-] (stereo not drawn) [SR-01000129880] | 114.68 ± 22.09% | 3.62 | 3.61 | 0.44 | 0.32 | 0.0561 µM | 1.22 | 1.21 | – | – | – | – | – | – | – | – | 0.02 ± 5.29% | > 14.1 µM | – | –
CCCCN(C)C(=O)CCC(=O)NNC1Cc2ccccc2C2=CC(C)=CC21 (stereo not drawn) [SR-01000131962] | 113.53 ± 12.66% | 4.28 | 4.28 | 1.14 | 0.34 | – | 2.37 | 2.37 | – | – | – | – | – | – | – | – | −5.39 ± 5.10% | > 14.1 µM | – | –
O=C(Cn1nc(Cc2ccncc2)c2ccccc2c1=O)NC(O)CCc1ccccc1 (stereo not drawn) [SR-01000134029] | 100.82 ± 13.50% | 4.27 | 4.27 | – | 0.34 | – | – | – | – | – | – | – | – | 1.41 | 1.41 | – | – | – | 19.31 ± 4.61% | > 14.1 µM
CC(CCc1ccccc1)NC(=O)Cn1ncc2c1-c1ccccc1OC2 (stereo not drawn) [SR-01000134913] | 96.78 ± 14.90% | – | – | – | – | – | 1.52 | 1.52 | 0.31 | 0.51 | 2.73 | 2.73 | 0.863 µM | – | – | – | −5.82 ± 11.13% | > 14.1 µM | – | –
O=C(Cc1ccccc1)CC1C=CC2=C1c1ccccc1CC2 (stereo not drawn) [SR-01000134941] | 109.36 ± 34.06% | 4.30 | 4.30 | 0.39 | 0.39 | – | 2.40 | 2.40 | – | – | – | – | – | – | – | – | 10.65 ± 6.79% | > 14.1 µM | – | –
C=C(CC1N=CC2=C1c1ccccc1CC2)NCc1ccc(C)cc1 (stereo not drawn) [SR-01000134947] | 111.20 ± 10.15% | 4.02 | 4.02 | 0.36 | 0.38 | – | 2.07 | 2.07 | – | – | – | – | – | – | – | – | 1.42 ± 10.91% | > 14.1 µM | – | –
Cc1cccc(NC(=O)Cn2ncc3c2-c2ccccc2OC3)n1 [SR-01000135038] | 105.92 ± 4.10% | 5.32 | 5.31 | 0.77 | 0.43 | 0.0505 µM | 2.87 | 2.87 | – | – | – | – | – | – | – | – | 13.01 ± 4.86% | > 14.1 µM | – | –

Further lines, with some results ahead:

Averaged Max % Response (±St. Dev.) (GPR139) | Lipophilic Efficiency (logD) (GPR139; based on logD) | Lipophilic Efficiency (logP) (GPR139; based on logP) | Hill Slope (GPR139; fitted dose-response curve) | Efficiency Ligand (GPR139; ligand efficiency) | EC50 (GPR139; [1]) | Lipophilic Efficiency (logD) (parental HEK cells; HEK Agonist Activity section) | Lipophilic Efficiency (logP) (parental HEK cells; HEK Agonist Activity section) | Efficiency Ligand (GPR139) | Hill Slope (GPR139) | Lipophilic Efficiency (logD) (GPR139) | Lipophilic Efficiency (logP) (GPR139) | EC50 (GPR139; HEK-GPR139 cells) | Lipophilic Efficiency (logD) (parental HEK cells; HEK Agonist Activity) | Lipophilic Efficiency (logP) (parental HEK cells; HEK Agonist Activity) | Compound | EC50 (parental HEK cells; [2]) | Averaged Max % Response (±St. Dev.) (parental HEK cells; HEK Agonist Activity section) | EC50 (parental HEK cells; [3]) | Averaged Max % Response (±St. Dev.) (parental HEK cells; HEK Agonist Activity) | EC50 (parental HEK cells; Homo sapiens, HEK293, HEK Agonist Activity, parental non-transfected HEK cells)
95.59 ± 27.48% | 4.03 | 4.03 | 1.03 | 0.38 | 0.141 µM | 2.02 | 2.02 | – | – | – | – | – | – | – | O=C(CN1CCN(Cc2ccccc2Cl)C1=O)NC1CCCCCC1 [SR-01000125460] | > 14.1 µM | −2.02 ± 12.81% | – | – | –
92.90 ± 12.57% | 3.53 | 3.53 | 1.38 | 0.37 | 0.159 µM | 1.58 | 1.58 | – | – | – | – | – | – | – | O=C(CN1CCN(Cc2ccccc2Cl)C1=O)NC1CCCCCCC1 [SR-01000125462] | > 14.1 µM | 6.02 ± 12.03% | – | – | –
83.25 ± 20.00% | 3.74 | 3.74 | 0.73 | 0.35 | 0.143 µM | 1.74 | 1.74 | – | – | – | – | – | – | – | Cc1ccc(CCNC(=O)CN2CCN(Cc3ccccc3Cl)C2=O)cc1 [SR-01000125464] | – | 5.57 ± 17.96% | > 14.1 µM | – | –
103.06 ± 30.95% | 4.59 | 4.59 | 0.81 | 0.38 | 0.0471 µM | 2.11 | 2.11 | – | – | – | – | – | – | – | O=C(CN1CCN(Cc2ccccc2F)C1=O)NCCc1ccc(Cl)cc1 [SR-01000125584] | – | 0.37 ± 17.31% | > 14.1 µM | – | –
99.14 ± 16.79% | 3.63 | 3.63 | 0.99 | 0.35 | 0.208 µM | 1.80 | 1.80 | – | – | – | – | – | – | – | O=C(CN1CCN(Cc2ccc(F)cc2Cl)C1=O)NCc1ccccc1Cl [SR-01000125622] | – | −10.20 ± 10.64% | > 14.1 µM | – | –
79.66 ± 15.90% | – | – | – | – | – | 1.51 | 1.51 | 0.30 | 0.73 | 2.72 | 2.72 | – | – | – | Cc1ccc(CN2CCN(CC(=O)NCCc3ccc(Cl)cc3)C2=O)c(Cl)c1 [SR-01000125626] | – | −27.02 ± 6.51% | > 14.1 µM | – | –
98.80 ± 20.98% | – | – | – | – | – | 1.67 | 1.67 | 0.33 | 0.84 | 3.13 | 3.13 | 0.49 µM | – | – | CC1CCCC(NC(=O)CN2CCN(Cc3ccc(F)cc3Cl)C2=O)C1C (stereo not drawn) [SR-01000125648] | – | 8.17 ± 5.14% | > 14.1 µM | – | –
78.64 ± 16.53% | – | – | – | – | – | 2.75 | 2.75 | 0.29 | 1.58 | 3.90 | 3.90 | 1 µM | – | – | O=C(C1CC1)N1CCc2cc(S(=O)(=O)NCC3COc4ccccc4O3)ccc21 (stereo not drawn) [SR-01000126429] | – | 25.18 ± 6.22% | > 14.1 µM | – | –
95.23 ± 13.49% | 3.95 | 3.94 | 1.23 | 0.32 | – | 1.70 | 1.69 | – | – | – | – | – | – | – | CCCc1ccccc1C1=CCC(NC(=O)Cn2ncc3c2-c2ccccc2CC3)=C1 [SR-01000135037] | – | −6.83 ± 12.52% | > 14.1 µM | – | –
